# How the values were obtained:
# [1] = tested on: C3H/HeN mouse; experiment: hair generation test in hair-removed mouse, application of minoxidil and CXCL1 protein to back skin; type: in vivo; settings: applied to back skin for 14 days (FIG. 5); PBS-alone 20 mg
# Experimental: In addition, in the case of combining and using the minoxidil and the CXCL1 protein which were commercialized as a hair generation agent, an experiment for verifying whether the hair generation effect may be better was performed. First, for an experiment for hair regeneration, long hair of a 7-week-old C3H/HeN mouse and the like was shortly cut by using a hair cutting machine and thereafter, the hair was completely removed by using a hair removal agent. After the hair-removed mouse was stabilized for one day, a recombinant protein CXCL1 was mixed with 2% minoxidil (Women's Rogaine, Johnson & Johnson Healthcare Products, USA) to be 1 μg/ml and 10 μg/ml, respectively. The mixture of the minoxidil and the CXCL1 protein was applied to the back skin of the hair-removed mouse for 14 days by […] per day. As a control, a PBS-alone applied group and a 2% minoxidil-alone treated group were set. The hair generation in the back of the mouse was tracked and observed for 14 days and newly generated hair was obtained again and the weight was measured, and the result was illustrated in FIGS. 4 and 5.
# [2] = tested on: human dermal papilla cell (DPC); experiment: human dermal papilla cell (DPC) proliferation test; type: cell-based; settings: 1 ng/ml or 5 ng/ml treated to DPC, 40 hrs, compared to cells without CXCL1 protein (FIG. 1)
# Experimental: A human dermal papilla cell (DPC) proliferation test which is a representative in vitro cell test system for measuring hair proliferation was performed. 1 ng/ml or 5 ng/ml of the CXCL1 protein in Example 1 was treated to DPC, proliferation for 40 hrs was measured, and the result was illustrated in FIG. 1.
# [3] = tested on: C3H/HeN mouse; experiment: hair generation test in hair-removed mouse, subcutaneous injection of CXCL1 protein; type: in vivo
# Experimental: For a test for verifying a hair generation effect, the back of a 7-week-old C3H/HeN mouse was stabilized by removing hair by using a hair removal agent. After one day, 100 ng/ml of a human chemokine (C-X-C motif) ligand 1 (CXCL1) (SEQ ID NO:1) protein was subcutaneously injected to the back once. As a control, phosphate buffered saline (PBS) including 0.1% BSA at the same volume lysed with the CXCL1 protein was subcutaneously injected. Thereafter, the hair generation of the back of the hair-removed mouse was traced and observed for 15 days. A photograph of tracing and observing the back of the mouse with hair generation was illustrated in FIG. 2.
# Further, after 15 days, the hair of the back of the mouse with newly hair generation was removed by using a knife and then the result of measuring the weight of the obtained hair was illustrated in FIG. 3.
Compound,amount of newly generated hair [1],cell proliferation [2],"hair weight ([3]; 100 ng/ml subcutaneously injected once, newly generated hair after 15 days (FIG. 3), control 40 mg) [mg]","hair generation of the back (photograph) ([3]; 100 ng/ml subcutaneously injected to the back once, observed for 15 days, compared with control (FIG. 2))",new hair relative to PBS-administered group ([3]; CXCL1 protein-alone administration)
Nc1cc(N2CCCCC2)nc(N)[n+]1[O-] [minoxidil],about 30 mg,,,,
chemokine (C-X-C motif) ligand 1 (CXCL1) [CXCL1 protein],,cell proliferation was increased,80,hair generation was more excellent,about two times greater

# — patent US10512670B2, “Pharmaceutical composition for preventing or treating hair loss comprising chemokine (C-X-C motif) ligand 1 (CXCL1) protein or CXCL1 protein and minoxidil as active ingredient” (SCM LIFESCIENCE CO., LTD., priority 2016, dated 2019)
